Drawing on ChEMBL document CHEMBL1130859, “Inhibitors of the bacterial cell wall biosynthesis enzyme MurD” (Bioorg Med Chem Lett, 1998), this text covers IC50 for seven compounds.

pIC50: −log10 of the molar value.

The nature of one experiment: Compound was tested for inhibition against UDP-N-acetylmuramoyl-L-alanyl-D-glutamate synthetase. Also on record: species or system Escherichia coli.
`CC(NC(=O)CCCCCOP(=O)(O)O)P(=O)(O)CC(CCC(=O)O)C(=O)O` (configuration not stated) had a negative logarithm of the IC50 (pIC50) of 4.54.
Still for that read-out and setting: for `CC(=O)NC1C(OP(=O)(O)OP(=O)(O)OC[C@H]2OC(n3ccc(=O)[nH]c3=O)[C@H](O)[C@@H]2O)OC(CO)C(O)C1O[C@H](C)C(=O)N[C@@H](C)P(=O)(O)CC(CCC(=O)O)C(=O)O` (some centres not stated) the value was greater than 9.00; for `CC(NC(=O)CCCCCOP(=O)(O)OP(=O)(O)OC[C@H]1O[C@@H](n2ccc(=O)[nH]c2=O)[C@H](O)[C@@H]1O)P(=O)(O)CC(CCC(=O)O)C(=O)O` (some centres not stated), 6.17.
Still for that read-out and setting: for `CC(=O)NC1C(OP(=O)(O)O)OC(CO)C(O)C1O[C@H](C)C(=O)N[C@@H](C)P(=O)(O)CC(CCC(=O)O)C(=O)O` (some centres not stated) the value was 7.70.
Same read-out and setting: for `CC(=O)NC1C(OP(=O)(O)O)OC2COC(c3ccccc3)OC2C1O[C@H](C)C(=O)N[C@@H](C)P(=O)(O)CC(CCC(=O)O)C(=O)O` (some centres not stated) the value was 6.34; for `CC(=O)NC1C(O)OC(CO)C(O)C1O[C@H](C)C(=O)N[C@@H](C)P(=O)(O)CC(CCC(=O)O)C(=O)O` (some centres not stated), 3.11.

The next experiment can be described thus: Compound was tested for inhibition against UDP-N-acetylmuramoyl-L-alanyl-D-glutamate synthetase isolated from Escherichia coli.
In the case of `CC(=O)NC1C(OP(=O)(O)OP(=O)(O)OC[C@H]2OC(n3cc(I)c(=O)[nH]c3=O)[C@H](O)[C@@H]2O)OC(CO)C(O)C1O[C@H](C)C(=O)N[C@@H](C)P(=O)(O)CC(CCC(=O)O)C(=O)O` (some centres not stated) [17], the pIC50 is 8.40.

Usually pIC50 stands for the IC50 on a negative log10 scale, so that one unit is a factor of ten. Low readings indicate a large IC50, high ones a small IC50.
